Data: patent publication US8791266B2, “Thyroid hormone β receptor agonist” (Mitsubishi Tanabe Pharma Corporation, priority 2009, dated 2014)
pEC50: −log10 of the molar value.

Key:
[1] = biological target: T1, Human Thyroid Hormone Receptor α1 (TRα1) (Homo sapiens, UniProt P10827); assay: Transcription activation test of human thyroid hormone receptor α1 (luciferase reporter in 293T cells); format: cell-based; settings: ratio TRα/TRβ of the transcription activation EC50 values
T1 construct: expressed in transfected cells; host or cells: 293T cells
T1 sequence (P10827 1-410 isoform P10827-2): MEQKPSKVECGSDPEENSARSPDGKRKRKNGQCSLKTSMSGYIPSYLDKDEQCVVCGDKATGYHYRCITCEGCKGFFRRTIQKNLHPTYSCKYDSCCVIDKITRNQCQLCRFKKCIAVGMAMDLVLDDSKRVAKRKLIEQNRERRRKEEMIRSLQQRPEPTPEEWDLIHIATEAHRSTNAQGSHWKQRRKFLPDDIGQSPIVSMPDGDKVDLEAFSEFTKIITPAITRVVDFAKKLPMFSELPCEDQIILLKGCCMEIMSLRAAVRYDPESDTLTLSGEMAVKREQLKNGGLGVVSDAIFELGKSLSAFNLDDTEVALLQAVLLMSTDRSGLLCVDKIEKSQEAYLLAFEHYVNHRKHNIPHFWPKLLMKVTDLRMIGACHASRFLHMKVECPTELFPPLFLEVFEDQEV
Text: (§1) Transcription Activation Test of Human Thyroid Hormone Receptors α1 (TRα1) and β1 (TRβ1)
(§2) pcDNA3.1 vector (manufactured by Invitrogen) that expresses TRα1 or β1 cloned from human liver-derived cells, and firefly luciferase expression vector pDR4-LuC (manufactured by Stratagene) having a thyroid hormone response sequence to be a reporter were transfected into 293T cells cultured in Dulbecco's modified Eagle medium (DMEM) containing 10% of activated carbon/dextran-treated fetal bovine serum (FBS) by using Lipofectamine2000 (manufactured by Invitrogen). After 16 hr, the cells were plated again in a 96 well plate, and the medium was exchanged with DMEM containing 0.1% activated carbon/dextran-treated FBS. After 3 more hr, a compound diluted with dimethyl sulfoxide solution was added, and the luciferase activity after 24 hr was measured.
(§3) As a positive control, 3,3′,5-triiodo-L-thyronine (T3), which is a biological ligand, was used. The transcription activation action of the compound on TRα1 and TRβ1 was shown by each EC50 value and the maximum luciferase activity value relative to the maximum luciferase activity value of T3 as 100.

[2] = biological target: T2, Human Thyroid Hormone Receptor β1 (TRβ1) (Homo sapiens, UniProt P10828); assay: Transcription activation test of human thyroid hormone receptor β1 (luciferase reporter in 293T cells); format: cell-based; settings: EC50 of transcription activation on TRβ1, 293T cells, luciferase activity after 24 hr; read-out: TRβ
T2 construct: expressed in transfected cells; host or cells: 293T cells
T2 sequence (P10828 1-461): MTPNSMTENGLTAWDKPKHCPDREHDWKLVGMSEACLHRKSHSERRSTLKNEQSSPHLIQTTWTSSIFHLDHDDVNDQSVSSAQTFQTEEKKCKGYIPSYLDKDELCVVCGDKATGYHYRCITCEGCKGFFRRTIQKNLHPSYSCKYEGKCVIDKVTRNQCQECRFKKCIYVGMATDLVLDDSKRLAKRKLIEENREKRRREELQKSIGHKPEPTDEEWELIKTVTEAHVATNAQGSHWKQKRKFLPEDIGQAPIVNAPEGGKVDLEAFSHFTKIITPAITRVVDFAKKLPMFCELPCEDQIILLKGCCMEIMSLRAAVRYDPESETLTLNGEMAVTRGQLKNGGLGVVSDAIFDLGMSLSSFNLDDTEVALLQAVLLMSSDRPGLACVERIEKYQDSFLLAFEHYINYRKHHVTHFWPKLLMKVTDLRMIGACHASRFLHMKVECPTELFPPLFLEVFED
Text: as §1, §2, §3

Compound | selectivity (TRα/TRβ) [1] | pEC50 [2]
Cc1cc(-n2nc(C#N)c(=O)[nH]c2=O)cc(C)c1Cc1ccc(O)c(-c2ccccc2)n1 [Example 216, 2-{4-[(5-hydroxy-6-phenylpyridin-2-yl)methyl]-3,5-dimethylphenyl}-3,5-dioxo-2,3,4,5-tetrahydro-1,2,4-triazine-6-carbonitrile] | A (5<(TRα/TRβ)) | 8.40
Cc1cc(OCc2noc(=O)[nH]2)c(F)c(C)c1Cc1ccc(O)c(N2CCCCC2)n1 [Example 118, 3-({2-fluoro-4-[(5-hydroxy-6-piperidin-1-ylpyridin-2-yl)methyl]-3,5-dimethylphenoxy}methyl)-1,2,4-oxadiazol-5(4H)-one] | B (2<(TRα/TRβ)<5) | 7.70
Cc1cc(OCC(=O)O)cc(C)c1Cc1ccc(O)c(-c2ccc3ccccc3c2)n1 [Example 3, (4-{[5-hydroxy-6-(2-naphthyl)pyridin-2-yl]methyl}-3,5-dimethylphenoxy)acetic acid] | A (5<(TRα/TRβ)) | 7.70
Cc1cc(OCC(=O)O)cc(C)c1Cc1ccc(O)c(C(C)C)n1 [Example 1, {4-[(5-hydroxy-6-isopropylpyridin-2-yl)methyl]-3,5-dimethylphenoxy}acetic acid] | B (2<(TRα/TRβ)<5) | 8.52
Cc1cc(OCC(=O)O)c(C)c(C)c1Cc1ccc(O)c(C(C)C)n1 [Example 4, {4-[(5-hydroxy-6-isopropylpyridin-2-yl)methyl]-2,3,5-trimethylphenoxy}acetic acid] | B (2<(TRα/TRβ)<5) | 9.30
Cc1cc(NC(=O)CC(=O)O)cc(C)c1Cc1ccc(O)c(C(C)C)n1 [Example 21, 3-({4-[(5-hydroxy-6-isopropylpyridin-2-yl)methyl]-3,5-dimethylphenyl}amino)-3-oxopropanoic acid] | B (2<(TRα/TRβ)<5) | 7.52
Cc1cc(OCC(=O)O)c(C)c(C)c1Cc1ccc(O)c(C(=O)N(C)CCc2ccccc2)n1 [Example 80] | B (2<(TRα/TRβ)<5) | 7.00
Cc1cccc(-c2nc(Cc3c(C)cc(OCc4noc(=O)[nH]4)c(F)c3C)ccc2O)c1F [Example 60, 3-[(2-fluoro-4-{[6-(2-fluoro-3-methylphenyl)-5-hydroxypyridin-2-yl]methyl}-3,5-dimethylphenoxy)methyl]-1,2,4-oxadiazol-5(4H)-one] | A (5<(TRα/TRβ)) | 9.22
Cc1cc(C(=O)NCC(=O)O)cc(C)c1Cc1ccc(O)c(C2CCCCC2)n1 [Example 64, N-{4-[(6-cyclohexyl-5-hydroxypyridin-2-yl)methyl]-3,5-dimethylbenzoyl}glycine] | B (2<(TRα/TRβ)<5) | 7.10
Cc1cc(OCC(=O)O)c(C)c(C)c1Cc1nc(C2CCCCC2)c(O)cc1F [Example 73, {4-[(6-cyclohexyl-3-fluoro-5-hydroxypyridin-2-yl)methyl]-2,3,5-trimethylphenoxy}acetic acid] | A (5<(TRα/TRβ)) | 9.70
Cc1cc(OCC(=O)O)c(C)c(C)c1Cc1cc(F)c(O)c(C2CCCCC2)n1 [Example 65, {4-[(6-cyclohexyl-4-fluoro-5-hydroxypyridin-2-yl)methyl]-2,3,5-trimethylphenoxy}acetic acid] | A (5<(TRα/TRβ)) | 8.00
Cc1cc(OC2(C(=O)O)CC2)cc(C)c1Cc1ccc(O)c(C2CCCCC2)n1 [Example 18, 1-{4-[(6-cyclohexyl-5-hydroxypyridin-2-yl)methyl]-3,5-dimethylphenoxy}cyclopropanecarboxylic acid] | C (2>(TRα/TRβ)) | 5.70
Cc1nc(OCC(=O)O)c(C)c(C)c1Cc1ccc(O)c(C2CCCCC2)n1 [Example 45, ({5-[(6-cyclohexyl-5-hydroxypyridin-2-yl)methyl]-3,4,6-trimethylpyridin-2-yl}oxy)acetic acid] | A (5<(TRα/TRβ)) | 8.30
Cc1cc(NC(=O)C(=O)O)cc(C)c1Cc1ccc(O)c(C2CCCCC2)n1 [Example 19, ({4-[(6-cyclohexyl-5-hydroxypyridin-2-yl)methyl]-3,5-dimethylphenyl}amino)(oxo)acetic acid] | B (2<(TRα/TRβ)<5) | 8.30
O=C(O)COc1cc(Br)c(Cc2ccc(O)c(-c3ccccc3)n2)c(Br)c1F [Example 256, [3,5-dibromo-2-fluoro-4-(5-hydroxy-6-phenyl-pyridin-2-ylmethyl)-phenoxy]acetic acid] | A (5<(TRα/TRβ)) | 8.52

Further lines, results first:

selectivity (TRα/TRβ) [1] | pEC50 [2] | Compound
A (5<(TRα/TRβ)) | 8.70 | Cc1cc(OCc2noc(=O)[nH]2)cc(C)c1Cc1ccc(O)c(-c2ccc3ccccc3c2)n1 [Example 29, 3-[(4-{[5-hydroxy-6-(2-naphthyl)pyridin-2-yl]methyl}-3,5-dimethylphenoxy)methyl]-1,2,4-oxadiazol-5(4H)-one]
B (2<(TRα/TRβ)<5) | 7.52 | Cc1cc(OCC(=O)O)c(C)c(C)c1Oc1ccc(O)c(C2CCCCC2)n1 [Example 10, {4-[(6-cyclohexyl-5-hydroxypyridin-2-yl)oxy]-2,3,5-trimethylphenoxy}acetic acid]
B (2<(TRα/TRβ)<5) | 6.70 | Cc1cc(OCC(=O)O)c(C#N)c(C)c1Cc1ccc(O)c(C2CCCCC2)n1 [Example 44, {2-cyano-4-[(6-cyclohexyl-5-hydroxypyridin-2-yl)methyl]-3,5-dimethylphenoxy}acetic acid]
C (2>(TRα/TRβ)) | 8.15 | Cc1cc(OCC(=O)O)c(C)c(C)c1Oc1ccc(O)c(C(C)C)n1 [Example 9, {4-[(5-hydroxy-6-isopropylpyridin-2-yl)oxy]-2,3,5-trimethylphenoxy}acetic acid]
A (5<(TRα/TRβ)) | 8.70 | Cc1cc(OCC(=O)O)c(C)c(C)c1Cc1ccc(O)c(-c2cccc(F)c2)n1 [Example 171, {4-[6-(3-fluoro-phenyl)-5-hydroxy-pyridin-2-ylmethyl]-2,3,5-trimethyl-phenoxy}acetic acid]
C (2>(TRα/TRβ)) | 8.00 | COc1c(OCc2noc(=O)[nH]2)cc(C)c(Cc2ccc(O)c(C3CCCCC3)n2)c1C [Example 107, 3-({4-[(6-cyclohexyl-5-hydroxypyridin-2-yl)methyl]-2-methoxy-3,5-dimethylphenoxy}methyl)-1,2,4-oxadiazol-5(4H)-one]
A (5<(TRα/TRβ)) | 9.40 | Cc1cc(OCC(=O)O)c(C)c(C)c1Cc1ccc(O)c(-c2cccc(Cl)c2)n1 [Example 173, (4-{[6-(3-chlorophenyl)-5-hydroxypyridin-2-yl]methyl}-2,3,5-trimethylphenoxy)acetic acid]
B (2<(TRα/TRβ)<5) | 8.40 | Cc1cc(CC(=O)O)c(C)c(C)c1Cc1ccc(O)c(C2CCCCC2)n1 [Example 41, {4-[(6-cyclohexyl-5-hydroxypyridin-2-yl)methyl]-2,3,5-trimethylphenyl}acetic acid]
B (2<(TRα/TRβ)<5) | 8.70 | Cc1cc(OCc2noc(=O)[nH]2)c2c(c1Cc1ccc(O)c(C3CCCCC3)n1)CCO2 [Example 117, 3-[({4-[(6-cyclohexyl-5-hydroxypyridin-2-yl)methyl]-5-methyl-2,3-dihydro-1-benzofuran-7-yl}oxy)methyl]-1,2,4-oxadiazol-5(4H)-one]
A (5<(TRα/TRβ)) | 8.22 | Cc1cc(NC(=O)CC(=O)O)cc(C)c1Cc1ccc(O)c(C2CCCCCC2)n1 [Example 52, 3-({4-[(6-cycloheptyl-5-hydroxypyridin-2-yl)methyl]-3,5-dimethylphenyl}amino)-3-oxopropanoic acid]
B (2<(TRα/TRβ)<5) | 7.52 | Cc1cc(NC(=O)CC(=O)O)c(C)c(C)c1Cc1ccc(O)c(C2CCCCC2)n1 [Example 24, 3-({4-[(6-cyclohexyl-5-hydroxypyridin-2-yl)methyl]-2,3,5-trimethylphenyl}amino)-3-oxopropanoic acid]
